Common to all, as to type: biochemical
One experiment deals with PIM-1 (Homo sapiens, UniProt P11309). In words: Enzyme PIM-1 Assay ([33P]ATP incorporation into PIM2tide, filter plate). As to conditions: averaged IC50; 35 μM ATP, 7.5 μM PIM2tide, 0.25 nM PIM-1, 60 min at 22° C. The gist of the method: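 Radiometric assay: 0.25 nM PIM-1 phosphorylates 7.5 μM PIM2tide with 35 μM [γ-33P]ATP in 20 mM MOPS pH 7.4, 10 mM MgCl2, 1 mM DTT, 0.005% Tween-20, 60 min at 22 °C. Product captured on P81 filters, scintillation counted; 10-point 3-fold curve from 10 μM top, 2% DMSO, IC50 by 4-parameter logistic fit of POC.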
Sequence of PIM-1 (P11309 whole entry, species assumed): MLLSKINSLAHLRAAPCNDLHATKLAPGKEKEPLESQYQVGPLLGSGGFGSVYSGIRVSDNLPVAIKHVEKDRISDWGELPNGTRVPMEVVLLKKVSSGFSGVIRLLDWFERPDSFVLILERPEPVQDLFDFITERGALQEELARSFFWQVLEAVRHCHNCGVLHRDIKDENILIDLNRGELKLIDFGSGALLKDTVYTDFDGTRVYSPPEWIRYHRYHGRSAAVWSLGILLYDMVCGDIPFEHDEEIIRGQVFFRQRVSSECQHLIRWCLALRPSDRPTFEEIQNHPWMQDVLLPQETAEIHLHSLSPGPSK

Experiment [1] deals with T1, GST-tagged recombinant full-length human Pim-2 (Homo sapiens, UniProt Q9P1W9).
T1 construct: GST-tagged recombinant full-length human Pim-2; GST
T1 sequence (Q9P1W9 whole entry): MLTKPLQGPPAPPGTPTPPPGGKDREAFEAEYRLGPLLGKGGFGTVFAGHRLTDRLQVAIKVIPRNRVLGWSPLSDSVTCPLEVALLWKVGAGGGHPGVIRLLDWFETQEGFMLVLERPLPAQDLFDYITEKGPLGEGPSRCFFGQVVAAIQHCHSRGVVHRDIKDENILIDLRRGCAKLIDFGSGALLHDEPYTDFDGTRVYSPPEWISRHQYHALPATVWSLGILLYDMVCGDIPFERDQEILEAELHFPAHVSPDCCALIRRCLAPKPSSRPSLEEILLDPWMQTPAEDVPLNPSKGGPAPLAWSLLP
In words: PIM-2 Assay (as Example A). As to conditions: averaged IC50; 4 μM ATP, 1.0 μM PIM2tide, 1.5 nM Pim-2. A digest of the protocol: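 Radiometric filter-binding assay: GST-tagged full-length human Pim-2 (1.5 nM) phosphorylates 1.0 μM PIM2tide with 4 μM [γ-33P]ATP for 60 min at 22 °C in pH 7.4 MOPS buffer, 2% DMSO. 10-point 3-fold dilutions from 10 μM top dose; IC50 from 4-parameter fit of percent of control.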

The next experiment concerns the target recombinant rat PIM-3 (Rattus norvegicus, UniProt O70444). Kind of experiment: PIM-3 Assay (as Example A). As to conditions: averaged IC50; 30 μM ATP, 3.75 μM PIM2tide, 0.5 nM PIM-3. The gist of the method: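 Recombinant rat PIM-3 (0.5 nM) with 3.75 μM PIM2tide and 30 μM [γ-33P]ATP in MOPS pH 7.4 buffer, 60 min at 22 °C; labelled peptide captured on phosphocellulose filters and counted by scintillation. 10-point curve (top dose 10 μM, 2% DMSO); IC50 from 4-parameter fit of percent of control.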

Counter-ions that a name gives are not always drawn.

As to `CN[C@H]1CCN([C@H](c2ccc3nnc(-c4ccc5cccc(OC(C)C)c5n4)n3c2)C(F)(F)F)C1` [Example 36, (S)—N-methyl-1-((R)-2,2,2-trifluoro-1-(3-(8-isopropoxyquinolin-2-yl)-[1,2,4]triazolo[4,3-a]pyridin-6-yl)ethyl)pyrrolidin-3-amine dihydrochloride], the results for the IC50 (at PIM-1; in experiment [1]; at recombinant rat PIM-3) were 0.18 nM, 32 nM and 2 nM, respectively.
As to `CCc1cccc2ccc(-c3nnc4ccc([C@@H](N5CC[C@H](N)C5)C(F)(F)F)cn34)nc12` [Example 37, (S)-1-((R)-1-(3-(8-ethylquinolin-2-yl)-[1,2,4]triazolo[4,3-a]pyridin-6-yl)-2,2,2-trifluoroethyl)pyrrolidin-3-amine dihydrochloride], the IC50 against PIM-1 was determined as 0.11 nM; in experiment [1] it was 22 nM; on recombinant rat PIM-3 it was 0.8 nM.
The matching figures for `CCNC(=O)c1ccc2ccc(-c3nnc4ccc([C@@H](N5CC[C@H](N)C5)C(F)(F)F)cn34)nc2c1` [Example 38, 2-(6-((R)-1-((S)-3-aminopyrrolidin-1-yl)-2,2,2-trifluoroethyl)-[1,2,4]triazolo[4,3-a]pyridin-3-yl)-N-ethylquinoline-7-carboxamide dihydrochloride]: 0.23 nM, 56 nM and 0.5 nM.
In the case of `N[C@H]1CCN([C@H](c2ccc3nnc(-c4ccc5cccc(C6CC6)c5n4)n3c2)C(F)(F)F)C1` [Example 39, (S)-1-((R)-1-(3-(8-cyclopropylquinolin-2-yl)-[1,2,4]triazolo[4,3-a]pyridin-6-yl)-2,2,2-trifluoroethyl)pyrrolidin-3-amine dihydrochloride], the IC50 at PIM-1 turned out to be 0.08 nM; in experiment [1] it was 18 nM; at recombinant rat PIM-3, 1 nM.
Consider `N[C@H]1CCN([C@H](c2ccc3nnc(-c4ccc5cccc(OC(F)(F)F)c5n4)n3c2)C(F)(F)F)C1` [Example 40, (S)-1-((R)-2,2,2-trifluoro-1-(3-(8-(trifluoromethoxy)quinolin-2-yl)-[1,2,4]triazolo[4,3-a]pyridin-6-yl)ethyl)pyrrolidin-3-amine dihydrochloride], for which the IC50 is 0.21 nM at PIM-1, 78 nM in experiment [1] and 4.7 nM on recombinant rat PIM-3.
In the case of `CC(C)c1cccc2ccc(-c3nnc4ccc([C@@H](N5CC[C@H](N)C5)C(F)(F)F)cn34)nc12` [Example 41, (S)-1-((R)-2,2,2-trifluoro-1-(3-(8-isopropylquinolin-2-yl)-[1,2,4]triazolo[4,3-a]pyridin-6-yl)ethyl)pyrrolidin-3-amine dihydrochloride], the IC50 amounted to 0.11 nM at PIM-1, 16 nM in experiment [1] and 2 nM on recombinant rat PIM-3.
On to `CNC(=O)c1ccc2ccc(-c3nnc4ccc([C@@H](N5CC[C@H](N)C5)C(F)(F)F)cn34)nc2c1` [Example 42, 2-(6-((R)-1-((S)-3-aminopyrrolidin-1-yl)-2,2,2-trifluoroethyl)-[1,2,4]triazolo[4,3-a]pyridin-3-yl)-N-methylquinoline-7-carboxamide dihydrochloride], for which the IC50 on PIM-1 was 0.26 nM; in experiment [1] it was 49 nM; on recombinant rat PIM-3, 0.5 nM.
As for `CN[C@H]1CCN([C@H](c2ccc3nnc(-c4ccc5cccc(OCC6CC6)c5n4)n3c2)C(F)(F)F)C1` [Example 43, (S)-1-((R)-1-(3-(8-(cyclopropylmethoxy)quinolin-2-yl)-[1,2,4]triazolo[4,3-a]pyridin-6-yl)-2,2,2-trifluoroethyl)-N-methylpyrrolidin-3-amine dihydrochloride], the IC50 on PIM-1 stood at 0.13 nM; in experiment [1] it was 65 nM; on recombinant rat PIM-3, 1.5 nM.
On to `CC(C)C(=O)Nc1ccc2ccc(-c3nnc4ccc(C(N5CC[C@H](N)C5)C(F)(F)F)cn34)nc2c1` (stereo partly drawn) [Example 44, N-(2-(6-(1-((S)-3-aminopyrrolidin-1-yl)-2,2,2-trifluoroethyl)-[1,2,4]triazolo[4,3-a]pyridin-3-yl)quinolin-7-yl)isobutyramide], for which the values for the IC50 (against PIM-1; in experiment [1]; on recombinant rat PIM-3) were 0.13 nM, 29 nM and 0.2 nM, respectively.
`CC(C)(C)c1cccc2ccc(-c3nnc4ccc([C@@H](N5CC[C@H](N)C5)C(F)(F)F)cn34)nc12` [Example 45, (S)-1-((R)-1-(3-(8-tert-butylquinolin-2-yl)-[1,2,4]triazolo[4,3-a]pyridin-6-yl)-2,2,2-trifluoroethyl)pyrrolidin-3-amine dihydrochloride]: the concentration for half-maximal inhibition (IC50) turned out to be 0.21 nM against PIM-1, 29 nM in experiment [1] and 0.5 nM on recombinant rat PIM-3.
Take `CC(C)(C)NC(=O)c1ccc2ccc(-c3nnc4ccc([C@@H](N5CC[C@H](N)C5)C(F)(F)F)cn34)nc2c1` [Example 46, 2-(6-((R)-1-((S)-3-aminopyrrolidin-1-yl)-2,2,2-trifluoroethyl)-[1,2,4]triazolo[4,3-a]pyridin-3-yl)-N-tert-butylquinoline-7-carboxamide dihydrochloride]: the values for the IC50 (against PIM-1; in experiment [1]; on recombinant rat PIM-3) were 0.07 nM, 33 nM and 0.3 nM, respectively.
In the case of `N[C@@H]1CCN([C@H](c2ccc3nnc(-c4ccc5cccc(C6CC6)c5n4)n3c2)C(F)(F)F)C1` [Example 47, (R)-1-((R)-1-(3-(8-cyclopropylquinolin-2-yl)-[1,2,4]triazolo[4,3-a]pyridin-6-yl)-2,2,2-trifluoroethyl)pyrrolidin-3-amine dihydrochloride], the IC50 against PIM-1 came out at 0.09 nM; in experiment [1], 51 nM; on recombinant rat PIM-3, 3.8 nM.
Turning to `CC(C)NC(=O)c1ccc2ccc(-c3nnc4ccc([C@H](N5CC[C@H](N)C5)C(F)(F)F)cn34)nc2c1` [Example 48, 2-(6-((S)-1-((S)-3-aminopyrrolidin-1-yl)-2,2,2-trifluoroethyl)-[1,2,4]triazolo[4,3-a]pyridin-3-yl)-N-isopropylquinoline-7-carboxamide dihydrochloride], the IC50 against PIM-1 is 1.41 nM; in experiment [1] it was > 100 nM; on recombinant rat PIM-3 it was 1.9 nM.
In the case of `CC(C)NC(=O)c1ccc2ccc(-c3nnc4ccc([C@@H](N5CC[C@@H](N)C5)C(F)(F)F)cn34)nc2c1` [Example 49, 2-(6-((R)-1-((R)-3-aminopyrrolidin-1-yl)-2,2,2-trifluoroethyl)-[1,2,4]triazolo[4,3-a]pyridin-3-yl)-N-isopropylquinoline-7-carboxamide dihydrochloride], the IC50 against PIM-1 turned out to be 0.22 nM; in experiment [1], 68 nM; on recombinant rat PIM-3 it was 0.4 nM.
With `CC(=O)N[C@H]1CCN(C(c2ccc3nnc(-c4ccc5cccc(OCC6CC6)c5n4)n3c2)C(F)(F)F)C1` (stereo partly drawn) [Example 50, N-((3S)-1-(1-(3-(8-(cyclopropylmethoxy)quinolin-2-yl)-[1,2,4]triazolo[4,3-a]pyridin-6-yl)-2,2,2-trifluoroethyl)pyrrolidin-3-yl)acetamide], the IC50 against PIM-1 was 4.88 nM; in experiment [1], > 100 nM; on recombinant rat PIM-3 it was 41 nM.
`N[C@H]1CCN([C@@H](c2ccc3nnc(-c4ccc5cccc(C6CC6)c5n4)n3c2)C(F)(F)F)C1` [Example 51, (S)-1-((S)-1-(3-(8-cyclopropylquinolin-2-yl)-[1,2,4]triazolo[4,3-a]pyridin-6-yl)-2,2,2-trifluoroethyl)pyrrolidin-3-amine dihydrochloride]: the figures for the IC50 (at PIM-1; in experiment [1]; at recombinant rat PIM-3) were 0.1 nM, 11 nM and 1.1 nM, respectively.
Turning to `CC(C)NC(=O)c1ccc2ccc(-c3nnc4ccc([C@H](N5CC[C@@H](N)C5)C(F)(F)F)cn34)nc2c1` [Example 52, 2-(6-((S)-1-((R)-3-aminopyrrolidin-1-yl)-2,2,2-trifluoroethyl)-[1,2,4]triazolo[4,3-a]pyridin-3-yl)-N-isopropylquinoline-7-carboxamide], the concentration for half-maximal inhibition (IC50) was 1.39 nM on PIM-1, > 100 nM in experiment [1] and 2 nM on recombinant rat PIM-3.
The matching figures for `CC1(NC(=O)c2ccc3ccc(-c4nnc5ccc([C@@H](N6CC[C@H](N)C6)C(F)(F)F)cn45)nc3c2)CC1` [Example 53, 2-(6-((R)-1-((S)-3-aminopyrrolidin-1-yl)-2,2,2-trifluoroethyl)-[1,2,4]triazolo[4,3-a]pyridin-3-yl)-N-(1-methylcyclopropyl)quinoline-7-carboxamide dihydrochloride]: 0.24 nM, 27 nM and 0.3 nM.
`CC(C)(C)NC(=O)c1ccc2ccc(-c3nnc4ccc([C@@H](N5CC[C@@H](N)C5)C(F)(F)F)cn34)nc2c1` [Example 54, 2-(6-((R)-1-((R)-3-aminopyrrolidin-1-yl)-2,2,2-trifluoroethyl)-[1,2,4]triazolo[4,3-a]pyridin-3-yl)-N-tert-butylquinoline-7-carboxamide dihydrochloride]: the IC50 at PIM-1 was 0.41 nM; in experiment [1], 67 nM; on recombinant rat PIM-3, 0.6 nM.

The record behind these values is patent publication US8889704B2 (Array BioPharma Inc., priority 2011, dated 2014).
